In the kinase profiling compilation of Christmann-Franck et al. (2016):
Blank lines part the entries; values can stand above or below the compound they belong to.

How the values were obtained:
Assay in all cases: KINOMEscan competition binding
Conditions in all cases: compound 10.0 µM
[1] = target: PIM1 (human) (UniProt P11309)
[2] = target: MAP4K2 (human) (UniProt Q12851)
[3] = target: DMPK (human) (UniProt Q09013)
[4] = target: MAP3K5 (human) (UniProt Q99683)
[5] = target: BMP2K (human) (UniProt Q9NSY1)
[6] = target: MINK1 (human) (UniProt Q8N4C8)
[7] = target: MAPK15 (human) (UniProt Q8TD08)
[8] = target: STK17B (human) (UniProt O94768)
[9] = target: NEK2 (human) (UniProt P51955)
[10] = target: MAP3K7 (human) (UniProt O43318)
[11] = target: PLK4 (human) (UniProt O00444)
[12] = tested on: KIT (human), P10721 [D816V]
[13] = target: AAK1 (human) (UniProt Q2M2I8)
Chain of AAK1 (human) (Q2M2I8 whole entry, looked up): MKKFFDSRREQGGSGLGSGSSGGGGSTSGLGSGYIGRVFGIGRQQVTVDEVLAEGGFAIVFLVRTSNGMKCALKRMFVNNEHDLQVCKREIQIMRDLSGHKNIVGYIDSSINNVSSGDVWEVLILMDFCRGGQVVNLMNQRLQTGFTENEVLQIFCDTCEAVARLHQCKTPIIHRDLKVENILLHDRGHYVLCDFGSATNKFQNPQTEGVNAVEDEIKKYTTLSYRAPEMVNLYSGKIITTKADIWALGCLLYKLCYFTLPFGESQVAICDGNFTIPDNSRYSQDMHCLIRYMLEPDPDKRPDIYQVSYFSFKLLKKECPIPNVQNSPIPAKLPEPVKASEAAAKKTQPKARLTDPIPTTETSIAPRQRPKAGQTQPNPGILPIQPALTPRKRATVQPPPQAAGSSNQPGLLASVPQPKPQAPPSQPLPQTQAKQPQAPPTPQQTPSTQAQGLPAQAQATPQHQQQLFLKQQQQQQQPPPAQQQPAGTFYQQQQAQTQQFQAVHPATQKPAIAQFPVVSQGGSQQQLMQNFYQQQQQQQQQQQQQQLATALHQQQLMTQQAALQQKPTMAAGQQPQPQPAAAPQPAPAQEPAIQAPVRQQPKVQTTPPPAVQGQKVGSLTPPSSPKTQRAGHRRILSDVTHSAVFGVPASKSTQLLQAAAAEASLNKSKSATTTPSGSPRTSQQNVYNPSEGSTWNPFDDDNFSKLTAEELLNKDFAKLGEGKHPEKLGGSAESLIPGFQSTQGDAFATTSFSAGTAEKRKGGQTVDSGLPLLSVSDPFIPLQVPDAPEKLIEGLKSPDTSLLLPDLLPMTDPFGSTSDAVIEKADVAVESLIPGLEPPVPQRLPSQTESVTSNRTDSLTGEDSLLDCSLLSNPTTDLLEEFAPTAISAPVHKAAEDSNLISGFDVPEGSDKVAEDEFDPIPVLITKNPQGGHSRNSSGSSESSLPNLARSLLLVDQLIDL

[14] = target: STK17A (human) (UniProt Q9UEE5)
[15] = target: CIT (human) (UniProt O14578)
Chain of CIT (human) (O14578 whole entry, looked up): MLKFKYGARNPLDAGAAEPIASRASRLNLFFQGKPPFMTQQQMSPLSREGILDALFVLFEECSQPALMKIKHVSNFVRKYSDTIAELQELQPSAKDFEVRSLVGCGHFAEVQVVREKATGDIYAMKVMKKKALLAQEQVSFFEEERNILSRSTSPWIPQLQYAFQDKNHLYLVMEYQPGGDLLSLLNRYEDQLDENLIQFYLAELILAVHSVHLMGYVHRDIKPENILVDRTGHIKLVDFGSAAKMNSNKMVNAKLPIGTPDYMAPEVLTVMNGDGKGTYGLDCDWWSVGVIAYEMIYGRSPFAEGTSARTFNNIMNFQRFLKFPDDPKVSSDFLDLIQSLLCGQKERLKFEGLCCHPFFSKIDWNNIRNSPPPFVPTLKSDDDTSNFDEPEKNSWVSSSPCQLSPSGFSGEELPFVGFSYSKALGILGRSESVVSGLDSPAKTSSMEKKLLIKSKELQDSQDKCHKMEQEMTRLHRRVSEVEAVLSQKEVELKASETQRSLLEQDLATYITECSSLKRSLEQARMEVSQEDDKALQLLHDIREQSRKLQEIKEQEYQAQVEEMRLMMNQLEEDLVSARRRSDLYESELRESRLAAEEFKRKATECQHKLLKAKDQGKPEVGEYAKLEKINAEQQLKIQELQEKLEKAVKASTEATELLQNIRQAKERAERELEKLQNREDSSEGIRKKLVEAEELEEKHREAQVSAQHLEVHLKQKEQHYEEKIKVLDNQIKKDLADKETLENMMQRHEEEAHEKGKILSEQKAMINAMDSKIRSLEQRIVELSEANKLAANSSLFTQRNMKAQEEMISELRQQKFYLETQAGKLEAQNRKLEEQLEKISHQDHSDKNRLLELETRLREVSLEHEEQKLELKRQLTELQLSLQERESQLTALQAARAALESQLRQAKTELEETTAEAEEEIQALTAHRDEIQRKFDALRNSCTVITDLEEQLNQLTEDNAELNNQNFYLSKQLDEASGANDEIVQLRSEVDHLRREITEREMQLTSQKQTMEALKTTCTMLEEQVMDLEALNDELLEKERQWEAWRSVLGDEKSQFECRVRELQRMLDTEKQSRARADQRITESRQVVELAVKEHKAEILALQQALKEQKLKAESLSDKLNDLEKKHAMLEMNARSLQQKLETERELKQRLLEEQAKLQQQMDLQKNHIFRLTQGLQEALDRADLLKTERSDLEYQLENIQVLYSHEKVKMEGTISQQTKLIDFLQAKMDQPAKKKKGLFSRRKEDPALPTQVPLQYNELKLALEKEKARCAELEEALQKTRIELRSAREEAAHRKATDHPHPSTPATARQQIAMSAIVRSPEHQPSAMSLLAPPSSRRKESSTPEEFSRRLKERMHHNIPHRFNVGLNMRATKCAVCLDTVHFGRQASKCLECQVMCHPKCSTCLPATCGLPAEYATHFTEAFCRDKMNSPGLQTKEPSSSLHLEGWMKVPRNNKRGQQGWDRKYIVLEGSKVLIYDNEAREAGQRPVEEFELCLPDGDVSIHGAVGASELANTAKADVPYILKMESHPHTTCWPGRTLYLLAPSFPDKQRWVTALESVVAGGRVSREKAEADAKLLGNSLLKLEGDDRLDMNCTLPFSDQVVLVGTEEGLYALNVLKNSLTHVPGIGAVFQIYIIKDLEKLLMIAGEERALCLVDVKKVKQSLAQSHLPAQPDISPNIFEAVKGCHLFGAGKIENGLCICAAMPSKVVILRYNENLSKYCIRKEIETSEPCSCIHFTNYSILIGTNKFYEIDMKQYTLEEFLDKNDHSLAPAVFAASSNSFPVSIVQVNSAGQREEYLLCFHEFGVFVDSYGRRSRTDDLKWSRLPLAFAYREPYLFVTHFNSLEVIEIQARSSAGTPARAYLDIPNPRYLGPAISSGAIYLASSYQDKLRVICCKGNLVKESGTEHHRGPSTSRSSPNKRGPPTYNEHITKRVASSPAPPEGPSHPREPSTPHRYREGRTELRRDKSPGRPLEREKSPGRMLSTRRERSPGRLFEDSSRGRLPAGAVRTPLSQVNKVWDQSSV

[16] = target: RPS6KA5 KD2 (human) (UniProt O75582)
[17] = target: CSNK2A2 (human) (UniProt P19784)
[18] = tested on: FLT3 (human), P36888 [N841I]
[19] = target: CDK7 (human) (UniProt P50613)
[20] = target: ACVR2A (human) (UniProt P27037)
[21] = target: PIP4K2B (human) (UniProt P78356)
[22] = target: PIM3 (human) (UniProt Q86V86)
[23] = target: ACVR2B (human) (UniProt Q13705)
[24] = target: CSNK2A1 (human) (UniProt P68400)
[25] = target: RIOK1 (human) (UniProt Q9BRS2)
[26] = tested on: EIF2AK4 KD2 (human), Q9P2K8 [S808G]
[27] = target: RPS6KA2 KD2 (human) (UniProt Q15349)
[28] = target: CSNK1G1 (human) (UniProt Q9HCP0)
[29] = target: AURKB (human) (UniProt Q96GD4)
Chain of AURKB (human) (Q96GD4 whole entry, looked up): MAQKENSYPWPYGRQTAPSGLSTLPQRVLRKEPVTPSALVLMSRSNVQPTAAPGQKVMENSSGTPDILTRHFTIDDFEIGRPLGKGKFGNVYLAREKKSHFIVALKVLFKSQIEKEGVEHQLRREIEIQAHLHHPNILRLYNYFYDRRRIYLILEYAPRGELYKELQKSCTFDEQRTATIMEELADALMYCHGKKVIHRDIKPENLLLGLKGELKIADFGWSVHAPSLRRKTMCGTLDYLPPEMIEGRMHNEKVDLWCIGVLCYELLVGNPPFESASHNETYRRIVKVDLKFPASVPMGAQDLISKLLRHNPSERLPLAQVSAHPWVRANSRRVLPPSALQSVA

[30] = target: BRSK2 (human) (UniProt Q8IWQ3)
[31] = target: MKNK2 (human) (UniProt Q9HBH9)
[32] = target: DCLK3 (human) (UniProt Q9C098)
[33] = target: MYLK3 (human) (UniProt Q32MK0)
[34] = target: PHKG2 (human) (UniProt P15735)
[35] = target: PIP5K1A (human) (UniProt Q99755)
[36] = target: TAOK3 (human) (UniProt Q9H2K8)
[37] = target: PIK3CG (human) (UniProt P48736)
[38] = target: CDK16 (human) (UniProt Q00536)
Chain of CDK16 (human) (Q00536 whole entry, looked up): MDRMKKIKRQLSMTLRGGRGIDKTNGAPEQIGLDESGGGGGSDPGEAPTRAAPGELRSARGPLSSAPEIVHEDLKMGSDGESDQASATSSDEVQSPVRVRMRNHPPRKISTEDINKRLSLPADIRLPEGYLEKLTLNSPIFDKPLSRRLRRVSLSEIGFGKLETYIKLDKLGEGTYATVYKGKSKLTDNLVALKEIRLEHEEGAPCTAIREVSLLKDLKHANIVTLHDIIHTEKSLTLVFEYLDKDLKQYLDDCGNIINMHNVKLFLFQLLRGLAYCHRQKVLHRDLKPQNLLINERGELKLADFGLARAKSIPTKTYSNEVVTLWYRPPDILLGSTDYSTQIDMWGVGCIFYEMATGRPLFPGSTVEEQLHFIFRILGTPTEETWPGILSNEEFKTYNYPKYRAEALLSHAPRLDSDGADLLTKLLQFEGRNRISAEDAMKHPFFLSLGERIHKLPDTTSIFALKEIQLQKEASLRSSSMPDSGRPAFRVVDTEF

[39] = target: GSK3A (human) (UniProt P49840)
Chain of GSK3A (human) (P49840 whole entry, looked up): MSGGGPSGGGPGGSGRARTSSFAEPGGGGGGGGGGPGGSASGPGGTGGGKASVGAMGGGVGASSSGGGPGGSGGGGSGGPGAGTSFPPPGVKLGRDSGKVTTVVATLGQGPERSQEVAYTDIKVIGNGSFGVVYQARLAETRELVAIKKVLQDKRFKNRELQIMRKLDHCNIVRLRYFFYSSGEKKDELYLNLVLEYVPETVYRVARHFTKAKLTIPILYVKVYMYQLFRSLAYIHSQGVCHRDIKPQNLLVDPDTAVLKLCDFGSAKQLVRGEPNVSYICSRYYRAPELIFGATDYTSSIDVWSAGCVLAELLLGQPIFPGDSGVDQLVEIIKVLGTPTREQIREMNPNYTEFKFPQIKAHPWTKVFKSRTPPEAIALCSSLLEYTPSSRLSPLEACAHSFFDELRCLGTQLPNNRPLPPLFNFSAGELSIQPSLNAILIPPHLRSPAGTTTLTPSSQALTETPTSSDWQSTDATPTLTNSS

[40] = target: CSNK1D (human) (UniProt P48730)
[41] = target: AURKC (human) (UniProt Q9UQB9)
[42] = target: MYLK (human) (UniProt Q15746)

Chain of DMPK (human) (Q09013 whole entry, looked up): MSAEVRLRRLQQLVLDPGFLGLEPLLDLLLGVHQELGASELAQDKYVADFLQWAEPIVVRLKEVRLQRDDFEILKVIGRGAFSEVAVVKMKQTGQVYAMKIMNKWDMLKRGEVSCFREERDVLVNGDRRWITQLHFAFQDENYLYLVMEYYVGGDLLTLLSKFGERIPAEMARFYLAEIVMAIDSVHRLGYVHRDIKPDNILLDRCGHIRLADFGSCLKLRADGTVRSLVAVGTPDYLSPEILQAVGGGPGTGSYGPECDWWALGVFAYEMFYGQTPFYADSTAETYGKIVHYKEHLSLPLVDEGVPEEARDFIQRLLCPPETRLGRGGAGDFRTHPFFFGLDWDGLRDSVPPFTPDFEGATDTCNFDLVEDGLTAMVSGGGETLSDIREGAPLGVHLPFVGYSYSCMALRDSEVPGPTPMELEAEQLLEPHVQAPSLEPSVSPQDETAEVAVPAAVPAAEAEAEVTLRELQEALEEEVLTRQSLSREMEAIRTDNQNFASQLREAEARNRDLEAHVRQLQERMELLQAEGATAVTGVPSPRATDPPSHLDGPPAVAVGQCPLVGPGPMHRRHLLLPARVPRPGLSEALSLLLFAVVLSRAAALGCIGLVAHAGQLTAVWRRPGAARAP

- kinase still bound, per cent of control [1]: 9.5%
- kinase still bound, per cent of control [2]: 12%
- kinase still bound, per cent of control [3]: 6.4%
- kinase still bound, per cent of control [4]: 4.6%
- kinase still bound, per cent of control [5]: 2.2%
- kinase still bound, per cent of control [6]: 15%
- kinase still bound, per cent of control [8]: 31%
- kinase still bound, per cent of control [9]: 19%
- kinase still bound, per cent of control [10]: 18%
- kinase still bound, per cent of control [11]: 24%
- kinase still bound, per cent of control [12]: 19%
- kinase still bound, per cent of control [13]: 7.6%
- kinase still bound, per cent of control [14]: 3.4%
- kinase still bound, per cent of control [15]: 23%
- kinase still bound, per cent of control [16]: 0.15%
- kinase still bound, per cent of control [17]: 3.4%
- kinase still bound, per cent of control [18]: 30%
- kinase still bound, per cent of control [19]: 26%
- kinase still bound, per cent of control [20]: 6.6%
- kinase still bound, per cent of control [21]: 13%
- kinase still bound, per cent of control [22]: 6.1%
- kinase still bound, per cent of control [23]: 12%
- kinase still bound, per cent of control [24]: 4.8%
- kinase still bound, per cent of control [25]: 11%
- kinase still bound, per cent of control [26]: 25%
SMILES: CS(=O)(=O)Nc1ccc(-c2cc(/C=C3\SC(=N)NC3=O)c[nH]c2=O)cc1
- kinase still bound, per cent of control [7]: 0.1%

- kinase still bound, per cent of control [1]: 91%
- kinase still bound, per cent of control [2]: 94%
- kinase still bound, per cent of control [27]: 23%
- kinase still bound, per cent of control [3]: 65%
- kinase still bound, per cent of control [4]: 100%
- kinase still bound, per cent of control [28]: 100%
- kinase still bound, per cent of control [5]: 84%
- kinase still bound, per cent of control [29]: 100%
- kinase still bound, per cent of control [30]: 85%
- kinase still bound, per cent of control [6]: 60%
- kinase still bound, per cent of control [31]: 32%
- kinase still bound, per cent of control [8]: 100%
- kinase still bound, per cent of control [32]: 84%
- kinase still bound, per cent of control [9]: 62%
- kinase still bound, per cent of control [33]: 100%
- kinase still bound, per cent of control [34]: 68%
- kinase still bound, per cent of control [10]: 98%
- kinase still bound, per cent of control [11]: 5.4%
- kinase still bound, per cent of control [12]: 76%
- kinase still bound, per cent of control [13]: 35%
- kinase still bound, per cent of control [35]: 91%
- kinase still bound, per cent of control [14]: 100%
- kinase still bound, per cent of control [15]: 10%
- kinase still bound, per cent of control [16]: 62%
- kinase still bound, per cent of control [17]: 67%
- kinase still bound, per cent of control [36]: 70%
- kinase still bound, per cent of control [18]: 93%
- kinase still bound, per cent of control [19]: 83%
- kinase still bound, per cent of control [20]: 100%
- kinase still bound, per cent of control [37]: 28%
- kinase still bound, per cent of control [38]: 94%
- kinase still bound, per cent of control [21]: 100%
- kinase still bound, per cent of control [22]: 92%
- kinase still bound, per cent of control [23]: 100%
- kinase still bound, per cent of control [39]: 100%
- kinase still bound, per cent of control [40]: 60%
- kinase still bound, per cent of control [24]: 100%
- kinase still bound, per cent of control [41]: 89%
- kinase still bound, per cent of control [25]: 100%
- kinase still bound, per cent of control [42]: 16%
- kinase still bound, per cent of control [26]: 100%
SMILES: COc1cc(N2CCC(O)CC2)ccc1Nc1ncc2c(n1)N1CCc3cccc(c31)C(=O)N2C
- kinase still bound, per cent of control [7]: 100%

- kinase still bound, per cent of control [1]: 100%
- kinase still bound, per cent of control [2]: 80%
- kinase still bound, per cent of control [27]: 93%
- kinase still bound, per cent of control [3]: 86%
- kinase still bound, per cent of control [4]: 100%
- kinase still bound, per cent of control [28]: 100%
- kinase still bound, per cent of control [5]: 100%
- kinase still bound, per cent of control [29]: 100%
- kinase still bound, per cent of control [30]: 100%
- kinase still bound, per cent of control [6]: 100%
- kinase still bound, per cent of control [31]: 72%
- kinase still bound, per cent of control [8]: 100%
- kinase still bound, per cent of control [32]: 100%
- kinase still bound, per cent of control [9]: 100%
- kinase still bound, per cent of control [33]: 100%
- kinase still bound, per cent of control [34]: 78%
- kinase still bound, per cent of control [10]: 87%
- kinase still bound, per cent of control [11]: 97%
- kinase still bound, per cent of control [12]: 100%
- kinase still bound, per cent of control [13]: 100%
- kinase still bound, per cent of control [35]: 100%
- kinase still bound, per cent of control [14]: 100%
- kinase still bound, per cent of control [15]: 100%
- kinase still bound, per cent of control [16]: 100%
- kinase still bound, per cent of control [17]: 76%
- kinase still bound, per cent of control [36]: 72%
- kinase still bound, per cent of control [18]: 90%
- kinase still bound, per cent of control [19]: 91%
- kinase still bound, per cent of control [20]: 100%
- kinase still bound, per cent of control [37]: 96%
- kinase still bound, per cent of control [38]: 100%
- kinase still bound, per cent of control [21]: 100%
- kinase still bound, per cent of control [22]: 100%
- kinase still bound, per cent of control [23]: 100%
- kinase still bound, per cent of control [39]: 100%
- kinase still bound, per cent of control [40]: 82%
- kinase still bound, per cent of control [24]: 100%
- kinase still bound, per cent of control [41]: 74%
- kinase still bound, per cent of control [25]: 66%
- kinase still bound, per cent of control [42]: 82%
- kinase still bound, per cent of control [26]: 100%
SMILES: CN1C(=O)c2ccccc2N(C)c2nc(NS(=O)(=O)c3ccc(N)cc3)ncc21
- kinase still bound, per cent of control [7]: 99%

- kinase still bound, per cent of control [1]: 46%
- kinase still bound, per cent of control [2]: 6.3%
- kinase still bound, per cent of control [27]: 80%
- kinase still bound, per cent of control [3]: 91%
- kinase still bound, per cent of control [4]: 100%
- kinase still bound, per cent of control [28]: 100%
- kinase still bound, per cent of control [5]: 72%
- kinase still bound, per cent of control [29]: 59%
- kinase still bound, per cent of control [30]: 100%
- kinase still bound, per cent of control [6]: 71%
- kinase still bound, per cent of control [31]: 69%
- kinase still bound, per cent of control [8]: 93%
- kinase still bound, per cent of control [32]: 98%
- kinase still bound, per cent of control [9]: 84%
- kinase still bound, per cent of control [33]: 100%
- kinase still bound, per cent of control [34]: 6.8%
- kinase still bound, per cent of control [10]: 96%
- kinase still bound, per cent of control [11]: 2.1%
- kinase still bound, per cent of control [12]: 46%
- kinase still bound, per cent of control [13]: 75%
- kinase still bound, per cent of control [35]: 47%
- kinase still bound, per cent of control [14]: 62%
- kinase still bound, per cent of control [15]: 47%
- kinase still bound, per cent of control [16]: 92%
- kinase still bound, per cent of control [17]: 100%
- kinase still bound, per cent of control [36]: 2.1%
- kinase still bound, per cent of control [18]: 25%
- kinase still bound, per cent of control [19]: 100%
- kinase still bound, per cent of control [20]: 34%
- kinase still bound, per cent of control [37]: 100%
- kinase still bound, per cent of control [38]: 94%
- kinase still bound, per cent of control [21]: 74%
- kinase still bound, per cent of control [22]: 75%
- kinase still bound, per cent of control [23]: 52%
- kinase still bound, per cent of control [39]: 100%
- kinase still bound, per cent of control [40]: 42%
- kinase still bound, per cent of control [24]: 76%
- kinase still bound, per cent of control [41]: 55%
- kinase still bound, per cent of control [25]: 67%
- kinase still bound, per cent of control [42]: 100%
- kinase still bound, per cent of control [26]: 12%
SMILES: COc1cc(N2CCN(C)CC2)ccc1Nc1ncc2c(n1)Nc1ccccc1NC2=O
- kinase still bound, per cent of control [7]: 69%
